Columns and labels:
Assay type in all cases: in vivo
[1] = system: Italian ryegrass (Lolium mutiflorum); test: Test C preemergence, visual plant response rating
In short: (§1)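 Seeds sown in a loam–sand blend got a directed preemergence soil spray; postemergence plants (2–10 cm, one- to two-leaf stage) were sprayed with compound in a non-phytotoxic solvent plus surfactant. Injury was scored visually against untreated controls after about 10 d in a greenhouse on a 0–100 scale (100 = complete control).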

[2] = system: barnyardgrass (Echinochloa crus-galli); test: Test C preemergence, visual plant response rating
In short: as §1

[3] = system: foxtail, giant (giant foxtail, Setaria faberi); test: Test C preemergence, visual plant response rating
In short: as §1

[4] = system: kochia (Bassia scoparia); test: Test C preemergence, visual plant response rating
In short: as §1

[5] = system: pigweed (Amaranthus retroflexus); test: Test C preemergence, visual plant response rating
In short: as §1

[6] = system: ragweed (common ragweed, Ambrosia artemisiifolia); test: Test C preemergence, visual plant response rating
In short: as §1

[7] = system: Italian ryegrass (Lolium mutiflorum); test: Test C postemergence, visual plant response rating
In short: as §1

[8] = system: barnyardgrass (Echinochloa crus-galli); test: Test C postemergence, visual plant response rating
In short: as §1

[9] = system: blackgrass (Alopecurus myosuroides); test: Test C postemergence, visual plant response rating
In short: as §1

[10] = system: corn (Zea mays); test: Test C postemergence, visual plant response rating
In short: as §1

[11] = system: foxtail, giant (giant foxtail, Setaria faberi); test: Test C postemergence, visual plant response rating
In short: as §1

[12] = system: galium (catchweed bedstraw, Galium aparine); test: Test C postemergence, visual plant response rating
In short: as §1

[13] = system: kochia (Bassia scoparia); test: Test C postemergence, visual plant response rating
In short: as §1

[14] = system: pigweed (Amaranthus retroflexus); test: Test C postemergence, visual plant response rating
In short: as §1

[15] = system: ragweed (common ragweed, Ambrosia artemisiifolia); test: Test C postemergence, visual plant response rating
In short: as §1

[16] = system: wheat (Triticum aestivum); test: Test C postemergence, visual plant response rating
In short: as §1

[17] = system: barnyardgrass (Echinochloa crus-galli); test: Test D flooded paddy test, visual plant response rating; conditions: 250 g ai/ha, scale 0 to 100 (0 no effect, 100 complete control), 13 to 15 d
In short: (§2)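 Plants grown to the 2-leaf stage; pots flooded to 3 cm above soil and compound applied directly into paddy water, depth held throughout. Kept in greenhouse 13 to 15 d, then rated visually against untreated controls on a 0–100 scale (0 no effect, 100 complete control).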

[18] = system: duck salad (Heteranthera limosa); test: as above; conditions: 250 g ai/ha, scale 0 to 100 (0 no effect, 100 complete control), 13 to 15 d
In short: as §2

[19] = system: rice (Oryza sativa); test: as above; conditions: 250 g ai/ha, scale 0 to 100 (0 no effect, 100 complete control), 13 to 15 d
In short: as §2

[20] = system: sedge umbrella (small-flower umbrella sedge, Cyperus difformis); test: as above; conditions: 250 g ai/ha, scale 0 to 100 (0 no effect, 100 complete control), 13 to 15 d
In short: as §2

[21] = Test C, 31 g ai/ha, 0 is no effect, 100 is complete control
[22] = Test C, 125 g ai/ha, 0 is no effect, 100 is complete control
[23] = Test C, postemergence, 125 g ai/ha

Compound	Ryegrass, Italian plant response rating (0 to 100 scale) [1, 21]	Barnyardgrass plant response rating (0 to 100 scale) [2, 21]	Foxtail, Giant plant response rating (0 to 100 scale) [3, 21]	Kochia plant response rating (0 to 100 scale) [4, 21]	Pigweed plant response rating (0 to 100 scale) [5, 21]	Ragweed plant response rating (0 to 100 scale) [6, 21]	Ryegrass, Italian plant response rating (0 to 100 scale) ([7]; Postemergence, 31 g ai/ha)	Ryegrass, Italian plant response rating (0 to 100 scale) [7, 23]	Barnyardgrass plant response rating (0 to 100 scale) ([8]; Postemergence, 31 g ai/ha)	Barnyardgrass plant response rating (0 to 100 scale) [8, 23]	Blackgrass plant response rating (0 to 100 scale) ([9]; Postemergence, 31 g ai/ha)	Blackgrass plant response rating (0 to 100 scale) [9, 23]	Corn plant response rating (0 to 100 scale) ([10]; Postemergence, 31 g ai/ha)	Corn plant response rating (0 to 100 scale) [10, 23]	Foxtail, Giant plant response rating (0 to 100 scale) ([11]; Postemergence, 31 g ai/ha)	Foxtail, Giant plant response rating (0 to 100 scale) [11, 23]	Galium plant response rating (0 to 100 scale) ([12]; Postemergence, 31 g ai/ha)	Galium plant response rating (0 to 100 scale) [12, 23]	Kochia plant response rating (0 to 100 scale) ([13]; Postemergence, 31 g ai/ha)	Kochia plant response rating (0 to 100 scale) [13, 23]	also measured
Cc1nn(C)c(=O)c(/C(=N/OCCO)c2cccc3cc(Cl)ccc23)c1O [Compound 240]	0	0	10	0	50	0	0	0	0	20	0	10	0	0	0	0	20	50	0	0	Ryegrass, Italian plant response rating (0 to 100 scale) [1, 22]: 0; Barnyardgrass plant response rating (0 to 100 scale) [2, 22]: 0; Foxtail, Giant plant response rating (0 to 100 scale) [3, 22]: 80; Kochia plant response rating (0 to 100 scale) [4, 22]: 0; Pigweed plant response rating (0 to 100 scale) [5, 22]: 100; Ragweed plant response rating (0 to 100 scale) [6, 22]: 10; Pigweed plant response rating (0 to 100 scale) ([14]; Postemergence, 31 g ai/ha): 70; Pigweed plant response rating (0 to 100 scale) [14, 23]: 80; Ragweed plant response rating (0 to 100 scale) ([15]; Postemergence, 31 g ai/ha): 0; Ragweed plant response rating (0 to 100 scale) [15, 23]: 0; Wheat plant response rating (0 to 100 scale) ([16]; Postemergence, 31 g ai/ha): 0; Wheat plant response rating (0 to 100 scale) [16, 23]: 0; Plant response rating, Barnyardgrass (Flood) [17]: 15; Plant response rating, Ducksalad (Flood) [18]: 0; Plant response rating, Rice (Flood) [19]: 0; Plant response rating, Sedge, Umbrella (Flood) [20]: 0
CC(C)O/N=C(/c1c(O)c(Cl)nn(C)c1=O)c1ccc(F)c2ccccc12 [Compound 209]	10	50	80	0	20	90	10	40	50	80	10	30	10	20	70	90	90	100	10	40	Ryegrass, Italian plant response rating (0 to 100 scale) [1, 22]: 30; Barnyardgrass plant response rating (0 to 100 scale) [2, 22]: 80; Foxtail, Giant plant response rating (0 to 100 scale) [3, 22]: 100; Kochia plant response rating (0 to 100 scale) [4, 22]: 40; Pigweed plant response rating (0 to 100 scale) [5, 22]: 100; Ragweed plant response rating (0 to 100 scale) [6, 22]: 90; Pigweed plant response rating (0 to 100 scale) ([14]; Postemergence, 31 g ai/ha): 50; Pigweed plant response rating (0 to 100 scale) [14, 23]: 90; Ragweed plant response rating (0 to 100 scale) ([15]; Postemergence, 31 g ai/ha): 90; Ragweed plant response rating (0 to 100 scale) [15, 23]: 90; Wheat plant response rating (0 to 100 scale) ([16]; Postemergence, 31 g ai/ha): 0; Wheat plant response rating (0 to 100 scale) [16, 23]: 0; Plant response rating, Barnyardgrass (Flood) [17]: 0; Plant response rating, Ducksalad (Flood) [18]: 50; Plant response rating, Rice (Flood) [19]: 0; Plant response rating, Sedge, Umbrella (Flood) [20]: 80
C#CCO/N=C(\c1ccc(Cl)c(Cl)c1)c1c(O)c(C)nn(C)c1=O [Compound 166]	10	0	0	0	0	0	0	80	20	30	0	20	0	20	10	30	50	80	30	40	Ryegrass, Italian plant response rating (0 to 100 scale) ([1]; 125 g ai/ha): 60; Barnyardgrass plant response rating (0 to 100 scale) ([2]; 125 g ai/ha): 50; Foxtail, Giant plant response rating (0 to 100 scale) ([3]; 125 g ai/ha): 60; Kochia plant response rating (0 to 100 scale) ([4]; 125 g ai/ha): 80; Pigweed plant response rating (0 to 100 scale) ([5]; 125 g ai/ha): 50; Ragweed plant response rating (0 to 100 scale) ([6]; 125 g ai/ha): 10; Pigweed plant response rating (0 to 100 scale) ([14]; Postemergence, 31 g ai/ha): 30; Pigweed plant response rating (0 to 100 scale) [14, 23]: 50; Ragweed plant response rating (0 to 100 scale) ([15]; Postemergence, 31 g ai/ha): 20; Ragweed plant response rating (0 to 100 scale) [15, 23]: 30; Wheat plant response rating (0 to 100 scale) ([16]; Postemergence, 31 g ai/ha): 0; Wheat plant response rating (0 to 100 scale) [16, 23]: 60; Plant response rating, Barnyardgrass (Flood) [17]: 0; Plant response rating, Ducksalad (Flood) [18]: 0; Plant response rating, Rice (Flood) [19]: 0; Plant response rating, Sedge, Umbrella (Flood) [20]: 0

Reference: patent US20210045385A1, “PYRIDAZINONE-SUBSTITUTED KETOXIMES AS HERBICIDES” (FMC Corporation, priority 2018, published 2021)
